The record followed here is ChEMBL document CHEMBL1143622 (J Med Chem, 2005).

In test [1] the target is Integrin alpha-IIb/beta-3 (Homo sapiens, UniProt P05106+P08514). Briefly: Inhibitory activity against binding of Fibrinogen to thrombocyte alpha IIb beta-3 integrin. The test is classed as protein-complex assay.
A short description of test [2]: Inhibitory activity against thrombin.
Test [3] addresses Thrombin & trypsin (Homo sapiens) (UniProt P00734+P07477+P07478+P35030). Briefly: Selectivity against Thrombin to that of trypsin. The test is classed as protein assay.
Test [4] can be described thus: Inhibitory activity against Coagulation factor X.
Test [5] in a line: Inhibitory activity against trypsin.
A short description of test [6]: Inhibitory activity against thrombocyte aggregation induced by ADP. The test is classed as functional.
Test [7] in a line: Inhibitory activity against thrombocyte aggregation induced by collagen. The test is classed as functional.

Chain of Integrin alpha-IIb/beta-3 (P05106 27-788 limits assumed): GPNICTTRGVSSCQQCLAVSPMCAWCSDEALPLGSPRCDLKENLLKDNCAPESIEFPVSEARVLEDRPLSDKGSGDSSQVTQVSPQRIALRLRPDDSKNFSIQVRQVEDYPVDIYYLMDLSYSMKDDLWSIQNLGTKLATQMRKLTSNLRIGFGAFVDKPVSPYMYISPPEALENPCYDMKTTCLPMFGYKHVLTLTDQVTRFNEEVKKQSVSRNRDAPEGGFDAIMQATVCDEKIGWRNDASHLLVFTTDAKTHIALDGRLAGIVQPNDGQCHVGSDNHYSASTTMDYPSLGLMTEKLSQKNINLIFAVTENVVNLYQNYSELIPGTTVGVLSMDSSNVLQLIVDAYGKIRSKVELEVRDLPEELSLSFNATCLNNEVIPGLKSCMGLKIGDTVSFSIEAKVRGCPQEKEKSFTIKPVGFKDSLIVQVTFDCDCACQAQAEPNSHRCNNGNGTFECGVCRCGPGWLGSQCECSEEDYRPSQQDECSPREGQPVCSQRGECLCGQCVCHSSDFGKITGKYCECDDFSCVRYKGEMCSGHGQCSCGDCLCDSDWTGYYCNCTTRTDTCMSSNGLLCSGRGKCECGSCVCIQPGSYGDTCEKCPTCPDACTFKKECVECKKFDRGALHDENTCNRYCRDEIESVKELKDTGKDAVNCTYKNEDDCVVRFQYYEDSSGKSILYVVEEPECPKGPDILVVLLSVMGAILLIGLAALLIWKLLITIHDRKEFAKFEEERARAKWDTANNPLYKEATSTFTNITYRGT
Chain of Integrin alpha-IIb/beta-3 (P08514 32-887 limits assumed): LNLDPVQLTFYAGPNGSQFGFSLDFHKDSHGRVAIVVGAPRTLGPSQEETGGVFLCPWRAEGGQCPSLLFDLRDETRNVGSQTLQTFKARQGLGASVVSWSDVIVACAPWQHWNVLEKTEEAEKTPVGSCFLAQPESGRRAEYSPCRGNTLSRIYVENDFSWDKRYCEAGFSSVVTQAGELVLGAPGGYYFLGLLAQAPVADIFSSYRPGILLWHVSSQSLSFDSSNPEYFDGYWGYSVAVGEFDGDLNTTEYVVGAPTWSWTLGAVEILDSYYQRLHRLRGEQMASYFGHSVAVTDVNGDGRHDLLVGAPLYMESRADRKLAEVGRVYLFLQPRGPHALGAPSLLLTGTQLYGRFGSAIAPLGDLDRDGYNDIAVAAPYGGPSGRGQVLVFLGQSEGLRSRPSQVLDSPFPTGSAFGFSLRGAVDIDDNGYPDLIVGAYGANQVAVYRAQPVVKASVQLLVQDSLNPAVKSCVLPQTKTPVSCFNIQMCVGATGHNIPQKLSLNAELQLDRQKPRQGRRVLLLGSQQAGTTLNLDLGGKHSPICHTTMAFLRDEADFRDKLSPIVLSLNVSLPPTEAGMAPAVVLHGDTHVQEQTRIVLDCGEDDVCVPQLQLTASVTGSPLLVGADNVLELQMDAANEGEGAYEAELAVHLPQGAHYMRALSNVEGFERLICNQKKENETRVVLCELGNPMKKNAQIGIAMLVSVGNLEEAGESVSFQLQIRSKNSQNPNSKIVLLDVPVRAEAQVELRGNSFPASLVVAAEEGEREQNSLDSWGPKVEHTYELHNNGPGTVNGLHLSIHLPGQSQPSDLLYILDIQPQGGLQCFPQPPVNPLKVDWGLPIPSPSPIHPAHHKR
Chain of Integrin alpha-IIb/beta-3 (P08514 891-1039 limits assumed): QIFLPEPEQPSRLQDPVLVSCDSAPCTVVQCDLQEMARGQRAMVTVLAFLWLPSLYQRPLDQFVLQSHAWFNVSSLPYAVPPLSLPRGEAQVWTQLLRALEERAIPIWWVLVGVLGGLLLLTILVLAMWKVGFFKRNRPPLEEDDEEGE

Take `CCOC(=O)[C@H](C)NC(=O)C(Cc1ccccc1)C(=O)Nc1ccc2c(c1)OCC(=O)N2Cc1ccc(C(=N)N)cc1` (stereo not given in full): the Ki (in general, a measure of affinity in units of concentration, obtained from inhibition or displacement) amounted to 7.3 µM in test [1], 21.3 µM in test [2], 26.8 µM in test [4] and 12.1 µM in test [5]. In addition, the Selectivity in test [3] worked out at 0.57.

Regarding `CCOC(=O)[C@H](Cc1ccccc1)C(=O)Nc1ccc2c(c1)OCC(=O)N2Cc1ccc(C(=N)N)cc1`, the Ki stood at 5.19 µM in test [1], 16.3 µM in test [2], 8.8 µM in test [4] and 5.5 µM in test [5]. This compound registered a Selectivity in test [3] of 0.3.

Turning to `COC(=O)C(Cc1ccccc1)C(=O)Nc1ccc2c(c1)OCC(=O)N2Cc1ccc(C(=N)N)cc1` (stereo not given), the Ki came to 0.973 µM in test [1], 38.6 µM in test [2], 22.3 µM in test [4] and 5.3 µM in test [5]. In test [3], this compound came in with a Selectivity of 0.14. For the same compound, the IC50 (in general, the concentration that gives 50% inhibition) was determined as 63 µM in test [6] and 85 µM in test [7].

As to `CCOC(=O)CNC(=O)C(Cc1ccccc1)C(=O)Nc1ccc2c(c1)OCC(=O)N2Cc1ccc(C(=N)N)cc1` (stereo not given), the inhibition constant Ki in test [1] was 6.84 µM; in test [2] it was 12.1 µM; in test [4], 20.6 µM; in test [5], 8.4 µM. Moreover, in test [3], the Selectivity came to 0.69.

In the case of `CN1C(=O)C(OCc2ccc(C(=N)N)cc2)Oc2cc(C(=O)N[C@@H](CC(=O)O)c3ccccc3)ccc21` (stereo not given in full), the Ki in test [1] is 1.64 µM; in test [2], 14.9 µM; in test [4], above 200 µM; in test [5], 26.5 µM.

Turning to `N=C(N)c1ccc(CN2C(=O)COc3cc(NC(=O)C(Cc4ccccc4)C(=O)N[C@@H](CCC(=O)O)C(=O)O)ccc32)cc1` (stereo not given in full), the Ki in test [1] was 0.206 µM; in test [2], 49.4 µM; in test [4], 25.7 µM; in test [5], 17.7 µM. The Selectivity in test [3] is 0.4.

On to `N=C(N)c1ccc(CN2C(=O)COc3cc(NC(=O)C(Cc4ccccc4)C(=O)O)ccc32)cc1` (stereo not given), for which the Ki in test [1] amounted to 3.94 µM; in test [2] it was 53.8 µM; in test [4], 31.6 µM; in test [5] it was 5.5 µM. Also, in test [3], the Selectivity was 0.1.

Regarding `CCOC(=O)CC[C@H](NC(=O)C(Cc1ccccc1)C(=O)Nc1ccc2c(c1)OCC(=O)N2Cc1ccc(C(=N)N)cc1)C(=O)OCC` (stereo not given in full), the Ki in test [1] came out at 3.66 µM; in test [2] it was 21.6 µM; in test [4] it was 19.2 µM; in test [5], 10.5 µM. This compound gave a Selectivity in test [3] of 0.5.

On to `CCOC(=O)C[C@H](NC(=O)c1ccc2c(c1)OC(OCc1ccc(C(=N)N)cc1)C(=O)N2C)c1ccccc1` (stereo not given in full), for which the results for the Ki in test [1], in test [4] and in test [5] were 24.6 µM, 54.6 µM and 16 µM, respectively. The compound also gave a Selectivity in test [3] of 4.2.

As for `CCOC(=O)[C@H](C)NC(=O)[C@H](Cc1ccccc1)C(=O)Nc1ccc2c(c1)OCC(=O)N2Cc1ccc(C(=N)N)cc1`, the Ki turned out to be 59.1 µM in test [1], 20.6 µM in test [2], 21.1 µM in test [4] and 9.6 µM in test [5]. Moreover, in test [3], the Selectivity stood at 0.5.

Turning to `CCOC(=O)CC[C@H](NC(=O)[C@H](Cc1ccccc1)C(=O)Nc1ccc2c(c1)OCC(=O)N2Cc1ccc(C(=N)N)cc1)C(=O)OCC`, the Ki in test [1] stood at 3.94 µM; in test [2], 23.3 µM; in test [4], 54.1 µM; in test [5], 46.2 µM. Moreover, the Selectivity in test [3] stood at 2.
